How the values were obtained:
[1] = system: bilateral knee osteoarthritis; experiment: Agmatine Administration Case 1: self-treatment and self-rating of knee osteoarthritis symptoms (WOMAC Index, VAS); assay type: in vivo, human; settings: for VAS Score / WOMAC (% Total Score): treatment duration 12-14 months
Description: Two study participants, each suffering from bilateral knee osteoarthritis, were consecutively self-treated as shown in the following Table 1: Treatment started with acetaminophen (as TYLENOL®, considered standard drug treatment) used as a rescue medication for the duration of their symptoms, 12 or 14 months as needed, followed by a 12-week treatment period of acetaminophen plus agmatine (taken as the G-AGMATINE® brand of agmatine sulfate). The participants self-rated their OA symptoms according to the WOMAC (Western Ontario and McMaster Universities Osteoarthritis) Index and according to the Visual Analog (pain) Scale (VAS). They had bilateral symptoms of mild-to-moderate chronic, frequent knee pain typical of knee OA according to WOMAC, score range of >25 and <100. Table 1 presents a summary of the participants' characteristics and treatment assessment at the indicated follow-up times. For the entire acetaminophen-only treatment, the dosage was 500 milligrams per caplet, and the frequency was two caplets every six hours, as needed (i.e., 1000 mg per six-hour period). For the acetaminophen plus agmatine regimen, the participants' initial dosage of acetaminophen was 500 milligrams per caplet with an initial dosage of agmatine of 450 milligrams per capsule. While the frequency of acetaminophen dosage for both participants remained two caplets every six hours, the frequency of the agmatine capsules was six capsules daily (i.e., 2,700 mg per day). […] Participant 1 eliminated acetaminophen after six weeks, and participant 2 eliminated acetaminophen after eight weeks of treatment. Thereafter, the participants were taking only agmatine and reduced the quantity of agmatine by one third (i.e., a regimen of 1,800 mg per day).

[2] = system: bilateral knee osteoarthritis; experiment: Agmatine Administration Case 2: consecutive self-treatment with acetaminophen, GCM formulation and agmatine (VAS, WOMAC); assay type: in vivo, human; settings: agmatine taken with acetaminophen and with acetaminophen/GCM formulation
Description: In a second study, four participants had bilateral symptoms of mild-to-moderate chronic, frequent knee pain typical of knee osteoarthritis according to a WOMAC Index score range of >25 and <100. They are compared in Table 2. Participants began taking acetaminophen (as TYLENOL®) as needed over the course of the symptom duration: Referring to FIG. 1, the four participants self-treated consecutively as follows: starting with Acetaminophen (as TYLENOL®, considered a standard drug treatment) used as a rescue medication for the duration of their symptoms for 4 to 6 months, followed by a sixty-day treatment period with acetaminophen plus a GCM formulation (i.e., glucosamine HCl, chondroitin sulfate, and methylsulfonylmethane (MSM)). The GCM formulation was followed by sixty-day period using a combination comprising acetaminophen, the GCM formulation, and agmatine (taken as the G-AGMATINE® brand of agmatine sulfate). […] Referring to FIG. 3, changes in the WOMAC ratings are shown, expressed as a percentage of total scores, at the specified time intervals after initiation of each of the acetaminophen (labeled “acet in the figure), acetaminophen and GCM formulation, and the combination acetaminophen/GCM formulation/agmatine treatment regimens. […]

[3] = humans, ingested; cited from earlier work

SMILES	VAS Score ([1]; Participant #1, acetaminophen as needed)	WOMAC (% Total Score) ([1]; Participant #1, acetaminophen as needed (entry two))	WOMAC (% Total Score) ([1]; Participant #2 (person one), acetaminophen as needed)	VAS Score ([1]; Participant #2, acetaminophen as needed)	Effect on OA symptoms (in words) ([1]; agmatine taken with acetaminophen, two participants)	Effect on improving OA symptoms (in words) [2]	apparent blood half-life [3]
CC(=O)Nc1ccc(O)cc1 [Acetaminophen]	6.0	83.3 % Total Score	85.4 % Total Score	6.5	–	–	–
N=C(N)NCCCCN [Agmatine]	–	–	–	–	dramatic improvement in OA symptoms	unexpected synergistic effect	about two

— US11877990B1, “Agmatine compositions for treatment of osteoarthritis” (priority 2022, dated 2024)
